Results as given in US8969565B2, “Imidazo[1,2-b]pyridazine-based compounds, compositions comprising them, and methods of their use” (Lexicon Pharmaceuticals, Inc., priority 2012, dated 2015).
pIC50: −log10 of the molar value.

What was measured:
AAK1 [1] = molecular target: T1, AAK1 (Homo sapiens, UniProt Q2M2I8); assay: HEK281 cell-based assay (phospho-mu2 Western blot in transfected HEK293F cells); conditions: 3 hours incubation, read-out: CBA IC50
T1 construct: HA; expressed in transfected cells; host or cells: HEK293F
Procedure, shortened: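 HEK293F cells co-transfected with full-length human AAK1/HA and Flag/AP2M1 were treated next day with 5 compound concentrations (3-fold dilutions) in DMEM+0.5% FBS for 3 hours at 37° C. Lysates were Western blotted for phospho-mu2, with total mu2 detected by anti-Flag.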

AAK1 [2] = molecular target: T1, AAK1; assay: P81 filter plate assay; type: biochemical; conditions: full-length human AAK1, Mu2 substrate
Method: Compounds were serially diluted into a Labcyte LDV plate (Labcyte, cat#LP-0200) using a Mutiprobe (PerkinElmer) and Biomek FX (Beckman Coulter) so that the highest compound concentration was at 96 μM. Compounds were then pinged (75 nL per well) into a Greiner 384-well reaction plate (Greiner, #781076) using an ECHO 550 Liquid Handler (Labcyte). A total of 12 μl reaction buffer (IMAP buffer containing Tween and DTT, from Molecular Devices) was then added to each well of columns 1 and 13 for the negative controls and 12 μl of 2×AAK1 (0.2 nM full-length human protein, NCBI accession no. NP_055726.2) was added to the remaining wells. Enzyme was then pre-incubated with compound for 10 minutes at RT. Reactions were initiated upon Minitrak (PerkinElmer) addition of 12 μl substrate mix containing 2×Mu2 (0.2 μM, full length human protein), 2× cold ATP (2 μM), and 1.3 μCi of hot ^33P-ATP. Reactions proceeded for one hour at RT. Meanwhile, Millipore 384-well P81 filter plates (Millipore, catalog #MZPHNOW10) were placed on a plate washer (Zoom ZW, from Titertek) and pre-wet with 50 μl 1% phosphoric acid. Kinase reactions were then stopped upon addition of 24 μl of 2% phosphoric acid to each well and the Minitrak was then used to transfer 40 μl from each well into the pre-wet Millipore 384-well P81 filter plates. Reaction mixtures were incubated for 10 minutes at RT in the P81 plates, followed by washing five times with 100 μl/well of 1% phosphoric acid using the Zoom filter washer. The bottom of each filter plate was sealed followed by addition of 20 μl Microscint 40 to each well, sealing the top of the plates with Flashplate cover, and then waiting one hour until reading on the TopCount (PerkinElmer).

T1 sequence (Q2M2I8 1-863 isoform Q2M2I8-2): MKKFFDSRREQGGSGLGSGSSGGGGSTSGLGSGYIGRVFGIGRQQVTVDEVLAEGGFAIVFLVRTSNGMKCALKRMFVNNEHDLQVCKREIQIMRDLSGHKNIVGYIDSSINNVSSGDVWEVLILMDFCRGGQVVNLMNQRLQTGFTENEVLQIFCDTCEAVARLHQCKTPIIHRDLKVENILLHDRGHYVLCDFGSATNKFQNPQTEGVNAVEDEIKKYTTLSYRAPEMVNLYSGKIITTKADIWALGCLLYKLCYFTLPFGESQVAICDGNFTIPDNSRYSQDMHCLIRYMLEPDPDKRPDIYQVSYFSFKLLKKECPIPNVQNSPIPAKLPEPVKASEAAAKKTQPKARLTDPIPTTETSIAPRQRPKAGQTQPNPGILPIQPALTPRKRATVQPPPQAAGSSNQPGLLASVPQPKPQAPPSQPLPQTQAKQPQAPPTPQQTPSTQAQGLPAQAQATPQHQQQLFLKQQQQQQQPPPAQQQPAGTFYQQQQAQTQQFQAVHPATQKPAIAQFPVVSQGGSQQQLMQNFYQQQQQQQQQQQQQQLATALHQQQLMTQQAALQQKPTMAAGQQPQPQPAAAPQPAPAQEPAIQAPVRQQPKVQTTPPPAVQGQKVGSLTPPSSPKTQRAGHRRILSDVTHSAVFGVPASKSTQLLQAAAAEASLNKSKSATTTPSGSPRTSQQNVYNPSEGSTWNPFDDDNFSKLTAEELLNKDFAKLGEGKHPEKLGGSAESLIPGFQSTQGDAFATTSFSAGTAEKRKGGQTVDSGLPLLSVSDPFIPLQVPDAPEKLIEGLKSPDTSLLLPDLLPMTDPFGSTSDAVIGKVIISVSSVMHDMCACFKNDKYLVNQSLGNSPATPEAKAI

Compound | pIC50 (AAK1 [1]) | pIC50 (AAK1 [2])
COc1ccccc1-c1cnc2ccc(N3CCN(C(=O)N(C)C(C)C)CC3)nn12 [N-isopropyl-4-(3-(2-methoxyphenyl)imidazo[1,2-b]pyridazin-6-yl)-N-methylpiperazine-1-carboxamide] | ≥ 7.00 | ≥ 8.00
CC(C)CC(=O)N1CCC[C@H]1CNc1ccc2ncc(-c3cccc(C#N)c3)n2n1 [(S)-3-(6-(((1-(3-methylbutanoyl)pyrrolidin-2-yl)methyl)amino)imidazo[1,2-b]pyridazin-3-yl)benzonitrile] | ≥ 7.00 | ≥ 8.00
COc1ncccc1-c1cnc2ccc(N(C)C[C@@H]3CCCN3C(=O)OC(C)C)nn12 [(S)-isopropyl 2-(((3-(2-methoxypyridin-3-yl)imidazo[1,2-b]pyridazin-6-yl)(methyl)amino)methyl)pyrrolidine-1-carboxylate] | ≥ 8.00 | ≥ 8.00
O=C(N1CCCC1)N1CCN(c2ccc3ncc(-c4ccccn4)n3n2)CC1 [[4-(3-Pyridin-2-yl-imidazo[1,2-b]pyridazin-6-yl)-piperazin-1-yl]-pyrrolidin-1-yl-methanone] | ≥ 7.00 | ≥ 8.00
COc1ccc(OC)c(-c2cnc3ccc(N4CCN(C(=O)OC(C)C)CC4)nn23)c1 [isopropyl 4-(3-(2,5-dimethoxyphenyl)imidazo[1,2-b]pyridazin-6-yl)piperazine-1-carboxylate] | ≥ 7.00 | ≥ 8.00
COc1ccc(F)cc1-c1cnc2ccc(N3CC[C@H](N(C)C(=O)OC(C)C)C3)nn12 [(S)-isopropyl (1-(3-(5-fluoro-2-methoxyphenyl)imidazo[1,2-b]pyridazin-6-yl)pyrrolidin-3-yl)(methyl)carbamate] | ≥ 8.00 | ≥ 8.00
CCOc1ccccc1-c1cnc2ccc(N3CCN(C(=O)OC(C)C)CC3)nn12 [isopropyl 4-(3-(2-ethoxyphenyl)imidazo[1,2-b]pyridazin-6-yl)piperazine-1-carboxylate] | ≥ 7.00 | ≥ 8.00
Cc1cc(-c2cnc3ccc(NC[C@@H]4CCCN4C(=O)CC(C)C)nn23)ccn1 [(S)-3-methyl-1-(2-(((3-(2-methylpyridin-4-yl)imidazo[1,2-b]pyridazin-6-yl)amino)methyl)pyrrolidin-1-yl)butan-1-one] | ≥ 7.00 | ≥ 8.00
COc1ncccc1-c1cnc2ccc(NC[C@@H]3CCCN3C(=O)OC(C)C)nn12 [(S)-isopropyl 2-(((3-(2-methoxypyridin-3-yl)imidazo[1,2-b]pyridazin-6-yl)amino)methyl)pyrrolidine-1-carboxylate] | ≥ 8.00 | ≥ 8.00
CC(C)(C)OC(=O)N1CCC[C@H]1CNc1ccc2ncc(-c3ccc(CN)cc3)n2n1 [(S)-tert-butyl 2-(((3-(4-(aminomethyl)phenyl)imidazo[1,2-b]pyridazin-6-yl)amino)methyl)pyrrolidine-1-carboxylate] | ≥ 8.00 | ≥ 8.00
COc1ccccc1-c1cnc2ccc(N3CCC(N(C)C(=O)OC(C)(C)C)C3)nn12 (stereo not shown) [tert-butyl (1-(3-(2-methoxyphenyl)imidazo[1,2-b]pyridazin-6-yl)pyrrolidin-3-yl)(methyl)carbamate] | ≥ 6.00 | ≥ 8.00
CC(C)(C)C(=O)N1CCC[C@H]1CNc1ccc2ncc(-c3ccc(CN)cc3)n2n1 [(S)-1-(2-(((3-(4-(aminomethyl)phenyl)imidazo[1,2-b]pyridazin-6-yl)amino)methyl)pyrrolidin-1-yl)-2,2-dimethylpropan-1-one] | ≥ 7.00 | ≥ 8.00
O=C(N1CCCCC1)N1CCN(c2ccc3ncc(-c4ccccc4)n3n2)CC1 [(4-(3-phenylimidazo[1,2-b]pyridazin-6-yl)piperazin-1-yl)(piperidin-1-yl)methanone] | ≥ 7.00 | ≥ 8.00
CCOc1ncccc1-c1cnc2ccc(N3CCN(C(=O)OC(C)C)CC3)nn12 [isopropyl 4-(3-(2-ethoxypyridin-3-yl)imidazo[1,2-b]pyridazin-6-yl)piperazine-1-carboxylate] | ≥ 8.00 | ≥ 8.00
CCCC(=O)N1CCC[C@H]1CNc1ccc2ncc(-c3ccc(CN)cc3)n2n1 [(S)-1-(2-(((3-(4-(aminomethyl)phenyl)imidazo[1,2-b]pyridazin-6-yl)amino)methyl)pyrrolidin-1-yl)butan-1-one] | ≥ 8.00 | ≥ 8.00
O=C(OC1CCC1)N1CCC[C@H]1CNc1ccc2ncc(Br)n2n1 [(S)-cyclobutyl 2-(((3-bromoimidazo[1,2-b]pyridazin-6-yl)amino)methyl)pyrrolidine-1-carboxylate] | ≥ 7.00 | ≥ 8.00

Next, values leading:

pIC50 (AAK1 [1]) | pIC50 (AAK1 [2]) | Compound
≥ 7.00 | ≥ 8.00 | COCCOC(=O)N1CCN(c2ccc3ncc(-c4cccnc4OC)n3n2)CC1 [2-methoxyethyl 4-(3-(2-methoxypyridin-3-yl)imidazo[1,2-b]pyridazin-6-yl)piperazine-1-carboxylate]
≥ 7.00 | ≥ 8.00 | CC(C)(C)CC(=O)N1CCN(c2ccc3ncc(-c4ccccc4)n3n2)CC1 [3,3-dimethyl-1-(4-(3-phenylimidazo[1,2-b]pyridazin-6-yl)piperazin-1-yl)butan-1-one]
≥ 6.00 | ≥ 8.00 | CC(C)OC(=O)N1CCC[C@H]1CNc1ccc2ncc(C#N)n2n1 [(S)-isopropyl 2-(((3-cyanoimidazo[1,2-b]pyridazin-6-yl)amino)methyl)pyrrolidine-1-carboxylate]
≥ 7.00 | ≥ 8.00 | C=COC(=O)N1CCC[C@H]1CNc1ccc2ncc(-c3ccccc3OC)n2n1 [(S)-vinyl 2-(((3-(2-methoxyphenyl)imidazo[1,2-b]pyridazin-6-yl)amino)methyl)pyrrolidine-1-carboxylate]
≥ 7.00 | ≥ 8.00 | CCOC(=O)N(C)[C@H]1CCN(c2ccc3ncc(-c4cccnc4OC)n3n2)C1 [(S)-ethyl (1-(3-(2-methoxypyridin-3-yl)imidazo[1,2-b]pyridazin-6-yl)pyrrolidin-3-yl)(methyl)carbamate]
≥ 7.00 | ≥ 8.00 | COc1cccc(-c2cnc3ccc(N4CCN(C(=O)OC(C)C)CC4)nn23)c1OC [isopropyl 4-(3-(2,3-dimethoxyphenyl)imidazo[1,2-b]pyridazin-6-yl)piperazine-1-carboxylate]
≥ 8.00 | ≥ 8.00 | CC(C)(C)OC(=O)N1CCC[C@H]1CNc1ccc2ncc(-c3ccc(C(N)=O)cc3)n2n1 [(S)-tert-butyl 2-(((3-(4-carbamoylphenyl)imidazo[1,2-b]pyridazin-6-yl)amino)methyl)pyrrolidine-1-carboxylate]
≥ 7.00 | ≥ 8.00 | CCOC(=O)N(C)[C@H]1CCN(c2ccc3ncc(-c4cc(F)cnc4OC)n3n2)C1 [(S)-ethyl (1-(3-(5-fluoro-2-methoxypyridin-3-yl)imidazo[1,2-b]pyridazin-6-yl)pyrrolidin-3-yl)(methyl)carbamate]
≥ 7.00 | ≥ 8.00 | N#Cc1ccc(-c2cnc3ccc(NCCOC4CCCC4)nn23)s1 [5-(6-((2-(cyclopentyloxy)ethyl)amino)imidazo[1,2-b]pyridazin-3-yl)thiophene-2-carbonitrile]
≥ 7.00 | ≥ 8.00 | O=C(N1CCCCC1)N1CCN(c2ccc3ncc(-c4ccccn4)n3n2)CC1 [piperidin-1-yl(4-(3-(pyridin-2-yl)imidazo[1,2-b]pyridazin-6-yl)piperazin-1-yl)methanone]
≥ 6.00 | ≥ 7.00 | c1cc(-c2cnc3ccc(NCCOC4CCCC4)nn23)n[nH]1 [N-(2-(cyclopentyloxy)ethyl)-3-(1H-pyrazol-3-yl)imidazo[1,2-b]pyridazin-6-amine]
≥ 8.00 | ≥ 8.00 | COc1ncccc1-c1cnc2ccc(N3CCN(C(=O)OC(C)C)CC3)nn12 [isopropyl 4-(3-(2-methoxypyridin-3-yl)imidazo[1,2-b]pyridazin-6-yl)piperazine-1-carboxylate]
≥ 7.00 | ≥ 8.00 | COc1ncccc1-c1cnc2ccc(N3CCN(C(=O)N4CCCCC4)CC3)nn12 [(4-(3-(2-methoxypyridin-3-yl)imidazo[1,2-b]pyridazin-6-yl)piperazin-1-yl)(piperidin-1-yl)methanone]
≥ 6.00 | ≥ 8.00 | CC1(OC(=O)N2CCC[C@H]2CNc2ccc3ncc(Br)n3n2)CCCC1 [(S)-1-methylcyclopentyl 2-(((3-bromoimidazo[1,2-b]pyridazin-6-yl)amino)methyl)pyrrolidine-1-carboxylate]
≥ 7.00 | ≥ 8.00 | CC(C)(C)OC(=O)N1CCN(c2ccc3ncc(I)n3n2)CC1 [4-(3-Iodo-imidazo[1,2-b]pyridazin-6-yl)-piperazine-1-carboxylic acid tert-butyl ester]
≥ 7.00 | ≥ 8.00 | COc1cc(-c2cnc3ccc(N4CCN(C(=O)OC(C)C)CC4)nn23)ccn1 [isopropyl 4-(3-(2-methoxypyridin-4-yl)imidazo[1,2-b]pyridazin-6-yl)piperazine-1-carboxylate]
